The text below walks through data of US20140120060A1, “TREATMENT OF RHEUMATOID ARTHRITIS AND ASTHMA USING PI3 KINASE INHIBITORS” (INFINITY PHARMACEUTICALS, INC., priority 2012, published 2014).

Structures are written as SMILES. pEC50: −log10 of the molar value.

The subject of the first assay is developing adjuvant arthritis. The assay can be described thus: Freund's complete adjuvant induced rat model of arthritis. The format is in vivo. The settings on record: reference treatment, dose not stated. The text has this: Freund's complete adjuvant induced arthritis in the rat is an experimental model of polyarthritis that has been widely used for nonclinical testing of numerous anti-arthritic agents that are either under nonclinical or clinical investigation, or are currently used as therapeutics in this disease.
Take `C[C@@H]1C[C@H]2[C@@H]3CCC4=CC(=O)C=C[C@]4(C)[C@@]3(F)[C@@H](O)C[C@]2(C)[C@@]1(O)C(=O)CO` [dexamethasone, reference compound]: the “inhibition of ankle diameter AUC (d7-14) increase” value came to 71%, the “reduction of histopathologic bone resorption” value turned out to be 97% and the “reduction of histopathologic inflammation” value is on record as 56%.

The subject of the next assay is B cell. Kind of assay: B cell proliferation. The format is cell-based.
Settings: not given
Compound `Cc1ccccc1-n1c(Cn2nc(-c3cccc(Cl)c3)c3c(N)ncnc32)cc2cccc(C)c2c1=O` [Compound 39] gave a pEC50 above 5.00.

`Cc1cccc2cc(Cn3nc(-c4cc(O)cc(F)c4)c4c(N)ncnc43)n(C)c(=O)c12` [Compound 125]: the pEC50 was above 7.00.

`CNC(=O)Nc1nc2ccc(-c3nn(Cc4cc5cccc(C)c5c(=O)n4-c4ccccc4C)c4ncnc(N)c34)cc2s1` [Compound 148] gave a pEC50 above 7.00.

`COc1cc(-c2nn(Cc3cc4cccc(C)c4c(=O)n3-c3ccccc3C)c3ncnc(N)c23)ccc1Cl` [Compound 21] gave a pEC50 above 6.00.

Turning to `Cc1ccccc1-n1c(Cn2nc(-c3cccc(O)c3)c3c(N)nccc32)cc2cccc(C)c2c1=O` [Compound 119], the pEC50 is above 6.00.

As for `Cc1ccccc1-n1c(Cn2nc(-c3cnn(CCO)c3)c3c(N)ncnc32)cc2cccc(C)c2c1=O` [Compound 163], the pEC50 was above 6.00.

Compound `Cc1cccc2cc(Cn3nc(-c4ccc5nc(N)[nH]c5c4)c4c(N)ncnc43)n(-c3ccccc3)c(=O)c12` [Compound 302] had a negative logarithm of the EC50 (pEC50) above 7.00.

`Cc1ccccc1-n1c(Cn2nc(-c3ccc(Cl)c(O)c3)c3c(N)ncnc32)cc2cccc(C)c2c1=O` [Compound 23] gave a negative logarithm of the EC50 (pEC50) above 7.00.

On to `Cc1cccc2cc(Cn3nc(-c4cc(O)cc(F)c4)c4c(N)ncnc43)n(C3CC3)c(=O)c12` [Compound 101], for which the pEC50 is above 7.00.

`Cc1cccc2cc(Cn3nc(-c4ccc5oc(N)nc5c4)c4c(N)ncnc43)n(C3CCC3)c(=O)c12` [Compound 208] gave a pEC50 above 7.00.

`Cc1ccccc1-n1c(Cn2nc(-c3cn[nH]c3)c3c(N)ncnc32)cc2ccccc2c1=O` [Compound 187] showed a pEC50 above 7.00.

Regarding `Cc1cccc2cc(Cn3nc(C#N)c4c(N)ncnc43)n(-c3ccccc3F)c(=O)c12` [Compound 169], the pEC50 is above 6.00.

As for `Cc1cccc2cc(Cn3nc(-c4ccc5oc(N)nc5c4)c4c(N)ncnc43)n(-c3ccccc3)c(=O)c12` [Compound 205], the pEC50 was above 7.00.

Compound `CCC(Nc1ncnc2[nH]cnc12)c1cc2cccc(C)c2c(=O)n1C1CCC1` (centres unmarked) [Compound 212] had a pEC50 above 6.00.

`Cc1cccc2cc(Cn3nc(-c4cccc(O)c4)c4c(N)ncnc43)n(C3CCCCC3)c(=O)c12` [Compound 111]: the pEC50 is above 6.00.

Consider `CC(=O)Nc1nc2cc(-c3nn(Cc4cc5cccc(C)c5c(=O)n4-c4ccccc4)c4ncnc(N)c34)ccc2o1` [Compound 253], for which the pEC50 was above 7.00.

Turning to `Nc1ncnc2c1c(-c1cc(O)cc(F)c1)nn2Cc1cc2cccc(Cl)c2c(=O)n1C1CC1` [Compound 142], the pEC50 was above 7.00.

As for `CC(C)n1c(Cn2nc(-c3cc(O)cc(F)c3)c3c(N)ncnc32)cc2ccccc2c1=O` [Compound 136], the pEC50 was above 7.00.

`CCc1nn(Cc2cc3cccc(C)c3c(=O)n2-c2ccccc2C)c2ncnc(N)c12` [Compound 294] showed a pEC50 above 6.00.

For `Nc1ncnc2c1c(-c1cccc(O)c1)nn2Cc1cc2cccc(Cl)c2c(=O)n1C1CC1` [Compound 141], the pEC50 is above 7.00.

`Cc1ccccc1-n1c(Cn2nc(C#C[C@H](C)O)c3c(N)ncnc32)cc2cccc(C)c2c1=O` [Compound 85] had a pEC50 above 6.00.

The compound `CC(=O)Nc1nc2cc(-c3nn(Cc4cc5cccc(C)c5c(=O)n4-c4ccccc4C)c4ncnc(N)c34)ccc2o1` [Compound 251] gave a pEC50 above 7.00.

In the case of `Cc1cccc2cc(C(C)Nc3ncnc4[nH]cnc34)n(CCN3CCCC3)c(=O)c12` (centres unmarked) [Compound 233], the pEC50 is above 7.00.

`Cc1ccccc1-n1c(Cn2nc(/C=C3/SC(=O)NC3=O)c3c(N)ncnc32)cc2cccc(C)c2c1=O` [Compound 173] gave a pEC50 above 7.00.

For the compound `CCc1ccccc1-n1c(Cn2nc(C#C[C@@H](C)O)c3c(N)ncnc32)cc2cccc(C)c2c1=O` [Compound 99], the pEC50 was above 7.00.

As to `Cc1cccc2cc([C@H](C)Nc3ncnc4[nH]cnc34)n(C3CCC3)c(=O)c12` [Compound 198], the pEC50 is above 7.00.

`Cc1cccc2cc(C(C)Nc3ncnc4[nH]cnc34)n(CCN3CCOCC3)c(=O)c12` (centres unmarked) [Compound 232] had a pEC50 above 7.00.

Take `Cc1cccc2cc(Cn3nc(I)c4c(N)ncnc43)n(C3CCCCC3)c(=O)c12` [Compound 87]: the pEC50 was above 5.00.

For the compound `Cc1cccnc1-n1c(Cn2nc(-c3cc(O)cc(F)c3)c3c(N)ncnc32)cc2ccccc2c1=O` [Compound 93], the pEC50 was above 7.00.

In turn, `Cc1ccccc1-n1c(Cn2nc(CF)c3c(N)ncnc32)cc2cccc(C)c2c1=O` [Compound 310] gave a pEC50 above 7.00.

Regarding `Cc1cccc2cc(Cn3nc(-c4cccc(Cl)c4)c4c(N)ncnc43)n(-c3ccccc3F)c(=O)c12` [Compound 38], the pEC50 is below 5.00.

Consider `Cc1cccc2cc(Cn3nc(-c4ccc(Cl)c(O)c4)c4c(N)ncnc43)n(C(C)C)c(=O)c12` [Compound 123], for which the pEC50 was above 7.00.

With `Cc1cccc2cc(Cn3nc(-c4cc(O)cc(F)c4)c4c(N)ncnc43)n(C3CCOCC3)c(=O)c12` [Compound 128], the pEC50 is above 7.00.

Regarding `CCC(Nc1ncnc2[nH]cnc12)c1cc2cccc(C)c2c(=O)n1C1CCN(C)CC1` (centres unmarked) [Compound 228], the pEC50 was above 7.00.

As for `Cc1ccccc1-n1c(Cn2cnc3c(N)ncnc32)cc2cccc(C)c2c1=O` [Compound 5], the pEC50 was above 5.00.

In turn, `Cc1cccc2cc(Cn3nc(-c4cn[nH]c4)c4c(N)ncnc43)n(-c3ccccc3)c(=O)c12` [Compound 206] gave a pEC50 above 7.00.

Regarding `COc1ccccc1-n1c(Cn2nc(C#C[C@@H](C)O)c3c(N)ncnc32)cc2cccc(C)c2c1=O` [Compound 80], the pEC50 is above 6.00.

`Cc1cccc2cc(Cn3nc(-c4cccc(O)c4)c4c(N)ncnc43)n(-c3ccccc3)c(=O)c12` [Compound 146] showed a pEC50 above 7.00.

`Cc1cccc2cc(Cn3nc(-c4ccc(Cl)c(O)c4)c4c(N)ncnc43)n(C3CCCC3)c(=O)c12` [Compound 71] showed a pEC50 above 5.00.

In the case of `Cc1ccccc1-n1c(Cn2nc(-c3ccc4ncnc(N)c4c3)c3c(N)ncnc32)cc2cccc(C)c2c1=O` [Compound 152], the pEC50 is above 6.00.

The compound `Cc1ccccc1-n1c(Cn2nc(Br)c3c(N)ncnc32)cc2cccc(C)c2c1=O` [Compound 19] showed a pEC50 above 6.00.

Compound `Cc1cccc2cc(Cn3nc(-c4cc(O)cc(F)c4)c4c(N)ncnc43)n(C3CCC3)c(=O)c12` [Compound 115] had a pEC50 above 7.00.

Turning to `Cc1cccnc1-n1c(Cn2nc(-c3cccc(O)c3)c3c(N)ncnc32)cc2cccc(C)c2c1=O` [Compound 73], the pEC50 was above 7.00.

Compound `Cc1cccc2cc(C(C)Nc3ncnc4[nH]cnc34)n(C3CCC3)c(=O)c12` (centres unmarked) [Compound 215] showed a pEC50 above 7.00.

The compound `Cc1cccc2cc(Cn3nc(-c4cc(O)cc(F)c4)c4c(N)ncnc43)n(-c3ccccc3OCCN3CCOCC3)c(=O)c12` [Compound 108] had a pEC50 above 7.00.

As to `Cc1cccc2cc([C@H](C)Nc3ncnc4[nH]nc(C#N)c34)n(-c3ccccc3)c(=O)c12` [Compound 255], the pEC50 was above 7.00.

Consider `C=Cc1nn(Cc2cc3cccc(C)c3c(=O)n2-c2ccccc2)c2ncnc(N)c12` [Compound 301], for which the pEC50 was above 7.00.

Compound `Cc1cccc2cc(Cn3nc(-c4cccc(O)c4)c4c(N)ncnc43)n(C3CC3)c(=O)c12` [Compound 102] gave a pEC50 above 7.00.

Take `CC(C)n1c(Cn2nc(-c3cc(O)cc(F)c3)c3c(N)ncnc32)cc2cccc(F)c2c1=O` [Compound 134]: the pEC50 was above 7.00.

Take `Cc1cccc2cc(Cn3nc(C#C[C@@H](C)O)c4c(N)ncnc43)n(-c3ccccc3Cl)c(=O)c12` [Compound 98]: the pEC50 is above 6.00.

As for `Cc1cccc2cc(Cn3nc(I)c4c(N)ncnc43)n(-c3ccccc3F)c(=O)c12` [Compound 2], the pEC50 is above 5.00.

Turning to `Cc1cccc2cc(Cn3nc(C(F)F)c4c(N)ncnc43)n(-c3ccccc3)c(=O)c12` [Compound 308], the pEC50 was above 7.00.

The compound `Cc1cccc2cc(Cn3nc(-c4ccc(Cl)c(O)c4)c4c(N)ncnc43)n(-c3ccccc3F)c(=O)c12` [Compound 24] had a pEC50 above 6.00.

In turn, `Cc1cccc2cc(Cn3nc(-c4cccc(F)c4)c4c(N)ncnc43)n(-c3ccccc3F)c(=O)c12` [Compound 40] had a pEC50 above 5.00.

`Cc1cccnc1-n1c(Cn2nc(Br)c3c(N)ncnc32)cc2cccc(C)c2c1=O` [Compound 17] had a pEC50 above 7.00.

With `Cc1cccc2cc(Cn3nc(-c4ccc(O)cc4)c4c(N)ncnc43)n(-c3ccccc3F)c(=O)c12` [Compound 46], the pEC50 was above 6.00.

For orientation: pEC50 means the negative decadic logarithm of the EC50, by convention in mol/L. Low values mean a large EC50, high ones a small EC50.
